Measurements taken from PubChem BioAssay (NCI).
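96-well plates; 48 h exposure; 5 concentrations. Endpoints by linear interpolation between flanking doses. Not reached: highest tested concentration assigned. At the GI50, growth is halved. TGI marks complete inhibition of growth.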

Tests used:
Experiment in all cases: NCI anticancer screen, dose series, 48 h
HL-60(TB) leukemia = test system: HL-60(TB) leukemia
SN12C renal = test system: SN12C renal
MOLT-4 leukemia = test system: MOLT-4 leukemia
OVCAR-4 ovarian = test system: OVCAR-4 ovarian
NCI/ADR-RES ovarian = test system: NCI/ADR-RES ovarian
A498 renal = test system: A498 renal
MCF7 breast = test system: MCF7 breast
ACHN renal = test system: ACHN renal
UO-31 renal = test system: UO-31 renal
MALME-3M melanoma = test system: MALME-3M melanoma

SMILES	GI50 (HL-60(TB) leukemia) [µM]	TGI (HL-60(TB) leukemia) [µM]	GI50 (SN12C renal) [µM]	TGI (SN12C renal) [µM]	GI50 (MOLT-4 leukemia) [µM]	TGI (MOLT-4 leukemia) [µM]	GI50 (OVCAR-4 ovarian) [µM]	TGI (OVCAR-4 ovarian) [µM]	GI50 (NCI/ADR-RES ovarian) [µM]	TGI (NCI/ADR-RES ovarian) [µM]	GI50 (A498 renal) [µM]	TGI (A498 renal) [µM]	GI50 (MCF7 breast) [µM]	TGI (MCF7 breast) [µM]	GI50 (ACHN renal) [µM]	TGI (ACHN renal) [µM]	GI50 (UO-31 renal) [µM]	TGI (UO-31 renal) [µM]	GI50 (MALME-3M melanoma) [µM]	TGI (MALME-3M melanoma) [µM]
CSc1ccc(C(=O)/C=C/c2ccc(Cl)cc2Cl)cc1	18.4	38.2	42.9	> 100	16.4	33.9	21.8	77.2	30	94.7	20.3	51.3	3.68	19.8	23.7	55.6	22.4	81.7	29.1	> 100
CC(C)(C)[Si](C)(C)OC1[C@@H](COC(=O)NC(=O)CCl)O[C@@H](n2cnc3c(N)ncnc32)[C@H]1O[Si](C)(C)C(C)(C)C (stereo not given in full)	4.52	12.3	1.17	3.23	1.01	2.22	3.89	10.7	5.44	12.2	6.58	13.1	2.26	9	1.38	3.45	2.3	5.88	0.984	2.01
CC12O[C@H](C[C@@H](OC(=O)CCC(=O)O)[C@H]1O)n1c3ccccc3c3c4c(c5c6ccccc6n2c5c31)C(=O)NC4=O	9.62	42.4	2.47	24.5	0.949	18	5.77	> 50	6.24	40.8	0.168	1.15	1.25	10.9	0.727	> 50	0.201	3.55	0.2	2.36
CCOC(=O)/C=C1/SC(=Nc2ccc(C#N)cc2)N(Cc2ccco2)C1=O	2.38	5.76	2.45	6.76	2.81	8.31	2.74	11.2	3.42	90.8	14.8	30	2.7	12.7	1.78	3.33	1.45	2.86	2.45	9.65
CSc1nc2c(c(=O)n1C)C(c1ccccc1)C1=C(N2)/C(=C/c2ccccc2)CCC1 (stereo not given)	0.721	48.4	53	> 100	4.9	> 100	30.8	> 100	4.07	> 100	16.8	88.4	7.72	> 100	3.56	50.5	1.69	30.7	5.87	> 100
C=CCSC(C)=O	–	> 100	–	> 100	–	–	–	> 100	–	> 100	–	> 100	–	> 100	–	> 100	–	> 100	–	> 100
COc1ccc2nc3ccccc3c(NCCNCC(C)O)c2c1 (stereo not given)	0.492	4.26	0.253	2.22	0.368	–	0.463	4.45	5.11	39.4	0.0734	0.73	0.315	4.14	0.375	14.4	0.398	2.39	0.426	1.72
COc1ccc(-c2c(-c3ccc(C#N)c(F)c3)nc(N3CCC(N)CC3)n(C)c2=O)cc1F	10.8	29.1	19.3	79.3	15.5	46.2	29.3	> 100	21.6	63.1	–	–	14.4	34	15.8	41.5	9.31	22.9	13.4	27.5
CN1CCN(c2ccc(NC3=CC(=O)c4ncncc4C3=O)cc2)CC1	0.249	0.635	0.326	0.969	0.289	–	0.147	0.28	0.294	1.01	1.42	2.8	0.186	0.405	0.228	0.52	0.27	0.761	0.268	0.713
CC/C=C\C[C@H]1C/C=C2/C(=O)C(Cl)=C[C@@H]2C/C=C\CCCC(=O)O1	0.527	2.7	0.575	2.57	0.329	2.2	0.952	4.9	0.423	2.37	0.56	1.43	0.0836	2.61	0.3	0.799	0.352	0.703	0.398	1.22
C(=N\Nc1ccc2ccccc2n1)/c1ccccn1	0.279	2.3	0.483	> 100	0.353	> 21.8	0.363	> 100	0.345	10.6	0.561	15.4	0.44	> 100	0.367	> 43.9	0.304	2.66	1.35	8.34
COC(=O)c1cc(-c2ccc(S(C)(=O)=O)cc2)[nH]c1N/N=C/c1c(Cl)cccc1Cl	0.57	> 100	0.699	> 100	0.514	> 100	1.7	> 100	0.343	11.5	0.334	4.75	0.329	20.8	2	> 100	0.49	37.5	1.35	23.1
COc1ccc(/C=C/c2ccnc3ccccc23)cc1OC	–	25.5	–	62.1	–	45.1	–	24.8	–	40	–	23.6	–	21.6	–	> 100	–	0.478	–	30.7
CCN1C(=O)N(CC)C2C1N=C(SC)N2/N=C/C=C/c1ccccc1OC (stereo not given)	0.289	1.09	0.512	> 43.5	0.457	> 46.1	1.55	> 81.5	0.329	–	0.285	1.9	0.421	> 39.4	0.724	> 49.3	0.821	> 47.3	1.01	> 42.8
COc1cc(-c2ccc[nH]2)[nH]c1/C=C1\N=C(C)C(CC(=O)OCC(C)(C)C)=C1C	0.239	0.801	–	–	0.242	1.32	0.331	2.06	0.357	1.46	0.163	0.867	0.175	1.25	0.287	0.965	0.173	0.382	0.4	1.69
COc1ccc2c(c1)-c1c(c3cc(OC)ccc3n(CCN(C)C)c1=O)C2=O	1.38	5.97	0.32	6.16	0.174	0.953	0.799	4	0.659	7.41	1.36	6.48	0.221	5.3	0.352	7.07	0.127	1.23	1.17	5.65
C[C@]12CCC(=O)C[C@@H]1CC[C@@H]1[C@@H]2CC[C@]2(C)[C@@H](OC(=O)N(CCCl)N=O)CC[C@@H]12	0.259	> 33	0.734	17.9	0.145	> 41.6	11.5	29.7	1.22	28	1.82	4.98	4.71	> 45.6	0.321	11.7	1.11	10.5	4.3	24.1
CCC(c1ccccc1)c1cc(C(C)(C)C)cc(C(C)(C)C)c1O (stereo not given)	–	–	–	31.3	–	–	–	29.3	–	28.7	–	33.9	–	35.7	–	32.6	–	32.3	–	26.8
Cc1c(-c2ccccn2)ccc2ccccc12	–	> 100	–	> 100	–	> 100	–	–	–	> 100	–	> 100	–	> 100	–	> 100	–	82.9	–	> 100
CC(=O)c1c(C)c2cnc(Nc3ccc(N4CCNCC4)cn3)nc2n(C2CCCC2)c1=O	0.638	24.8	7.37	21.6	0.548	24.9	11.2	23.8	16.7	33.8	4.69	19.5	0.585	18.7	1.03	14.7	2.6	20.1	8.25	24.4
O=C1/C(=C/c2ccc([N+](=O)[O-])o2)Oc2ccc(Cl)cc21	2.08	18.3	2.2	5.67	2.05	6.73	1.9	3.68	3.36	> 100	14.4	34	1.42	3.92	1.54	2.98	1.35	3.87	2.1	4.47
Clc1ccc(-c2nc(NCc3ccco3)c3ccccc3n2)c(Cl)c1	–	–	16.1	44.9	9.16	> 100	43.3	> 100	26.3	> 100	22	41	6.38	> 100	7.81	58.3	26.8	> 100	12.9	32.4
CCCCCCCCN=C(NCCCCCCCC)SCc1cccc2ccccc12	1.23	3.01	1.27	2.63	1.83	4.19	1.32	2.64	1.62	3.05	1.52	2.9	1.34	2.8	–	–	1.27	2.86	1.46	3.68
CCc1c(C)c2cc(-n3c(-c4ccc(OC)cc4)csc3=N)c(O)c(C)c2oc1=O	–	–	1.82	4.89	1.54	> 100	1.52	4.43	1.62	10.6	1.94	8.72	0.82	3.07	1.53	3.6	0.687	3.65	1.73	6.26
CCOCCOCCOCCOCCOCCOCCOCCOCCOCCO (tested in a mixture with another compound)	0.649	1.59	–	–	0.628	1.69	0.717	2.84	3.96	> 32.5	1.08	19.1	1.04	4.58	–	–	1.58	18.7	3.65	9.23
COc1ccc2nc3ccccc3c(NCCCCN(CCCl)CCCl)c2c1	–	–	–	3.13	–	< 0.0369	–	0.542	–	5.4	–	4.21	–	5.23	–	1.15	–	2.29	–	0.725
O=C(CI)Nc1ccc(Br)cc1	–	–	–	–	3.43	> 100	2.92	7.25	3.03	9.76	16.3	33.1	1.91	3.95	2	4.06	1.63	3.17	2.1	4.29
O=C1Cc2cc(CCN3CCNCC3)c(Cl)cc2N1	43	> 100	6	> 100	> 100	> 100	87.8	> 100	5.11	> 100	2.85	> 100	3.65	> 100	> 100	> 100	–	–	–	–
